Structures are written as SMILES.

Format in all cases: cell-based, human
The subject of test [1] is CB CD34+ cells. The test can be described thus: Ex vivo expansion of CB CD34+ cells with HDACIs, phenotypic analysis by flow cytometry. Conditions: 7 days of culture with cytokines plus HDACI. An excerpt: CB collections were purchased from the Placental Blood Program at the New York Blood Center. CB-MNCs were isolated by Ficoll-Hypaque density centrifugation, and CD34+ cells were purified by immunotnagnetic selection as previously described (Chaurasia et al., “Chromatin-Modifying Agents Promote the Ex vivo Production of Functional Human Erythroid Progenitor Cells,” Blood 117:4632-4641 (2011), which is hereby incorporated by reference in its entirety). Highly purified (90%-98%) PCs (4.0-5.0×10^4) were cultured in SF Stemline II (Sigma-Aldrich) culture medium or IMDM (Lonza) containing 30% FBS (HyClone Laboratories) supplemented with 150 ng/ml SCF, 100 ng/ml fms-like tyrosine kinase receptor 3 (FLT3 ligand), 100 ng/ml thrombopoietin (TPO), and 50 ng/ml interleukin 3 (IL-3) (R&D Systems) and incubated in a humidified incubator maintained at 37° C. with 5% CO2. […] The cell populations studied and the various conditions under which they were cultured are referred to by specific terms listed in Table 1. Viable PC and cultured cells were enumerated using the trypan blue exclusion method. The fold expansion of CD34+ cells or subpopulations was calculated based on the number of CD34+ cells determined to be present in an individual CB collection and the number of CD34+ cells that would have been generated if all of the CD34+ cells within that primary CB collection were cultured using the various culture conditions described. PC or cultured cells expanded in the presence or absence of HDACIs were stained with an anti-human CD34 mAb or an isotype-matched control mAb and analyzed using a FACSCanto II (BD). CD34+ cells were re-isolated using a CD34+ cell isolation kit, as previously described, for further phenotypic and functional analyses. All mAbs were purchased from BD Biosciences and Cell Signaling Technology. Phenotypic analyses ([…], […], and […]7) of the ex vivo-expanded cells after 7 days in control cultures or cytokines plus an HDACI were performed as previously described (Chaurasia et al., “Chromatin-Modifying Agents Promote the Ex vivo Production of Functional Human Erythroid Progenitor Cells,” Blood 117:4632-4641 (2011), which is hereby incorporated by reference in its entirety).

The test system of test [2] is HDAC1. The test can be described thus: HDAC protein levels in CB-MNCs, Western blot densitometry. Particulars: 24 hr, SCR 8 μM, C433 80 μM, VPA 1.25 mM.
The test system of test [3] is HDAC2. The description is as above. Particulars: 24 hr, SCR 8 μM, C433 80 μM, VPA 1.25 mM.
The subject of test [4] is HDAC3. Described as above. Particulars: 24 hr, SCR 8 μM, C433 80 μM, VPA 1.25 mM.
Excerpt: (§1) Cellular proteins were separated by SDS-PAGE using Novex (Invitrogen) and transferred by iBlot (Invitrogen). The membranes were probed with mAbs against individual histone deacetylases (HDAC1, HDAC2, HDAC3, HDAC4, HDAC5, HDAC6, and β-actin; Cell Signaling Technology) and developed using a chemiluminescence system with HRP-conjugated secondary antibodies (Amersham Biosciences) according to the manufacturer's instructions.
Test [5] concerns HDAC4. Described as above. Particulars: 24 hr, SCR 8 μM, C433 80 μM, VPA 1.25 mM.
Excerpt: as §1
Test [6] deals with HDAC5. The description is as above. Particulars: 24 hr, SCR 8 μM, C433 80 μM, VPA 1.25 mM.
Excerpt: as §1
Test [7] concerns HDAC6. Described as above. Conditions: 24 hr, SCR 8 μM, C433 80 μM, VPA 1.25 mM.
Excerpt: as §1
Test [8] concerns class I and II HDAC. In words: HDAC protein levels in CB-MNCs, Western blot, all HDACs examined. Conditions: after 2 hours of treatment.
Excerpt: as §1

For `Nc1ccccc1NC(=O)CCCCCCC(=O)Nc1ccccc1` [C433, CAY10433], in test [1], the “percentage of CD34+CD90+ cells” value was 70.1%±18.4%. In addition, in test [2], the “HDAC1 expression relative to b-ACTIN (%)” value worked out at 24.3 ± 0.4%. The “HDAC2 expression relative to b-ACTIN (%)” value in test [3] is given as 40.0 ± 8.0%. Besides, in test [4], the “HDAC3 expression relative to b-ACTIN (%)” value was 28.0 ± 20.0%. Also, the “HDAC4 expression relative to b-ACTIN (%)” value in test [5] is on record as 23.5 ± 16.5%. Also, the “HDAC5 expression relative to b-ACTIN (%)” value in test [6] amounted to 12.6 ± 1.9%. For the same molecule, the “HDAC6 expression relative to b-ACTIN (%)” value in test [7] turned out to be 35.8 ± 7.2%. In addition, in test [8], the “inhibition of HDAC expression” value is “did not inhibit HDAC expression”.

In the case of `O=C(CCCCCN1C(=O)c2cccc3cccc(c23)C1=O)NO` [SCR, Scriptaid], in test [1], the “percentage of CD34+CD90+ cells” value was 73.4%±13.9%. In addition, in test [8], the “inhibition of HDAC expression” value is reported as “did not inhibit HDAC expression”.

Values taken from US11261429B2, “Enriched and expanded human cord blood stem cells for treatment of hematological disorders” (ICAHN SCHOOL OF MEDICINE AT MOUNT SINAI, priority 2013, dated 2022).
